From US9809623B2, “α4β7 peptide monomer and dimer antagonists” (Protagonist Therapeutics, Inc., priority 2014, dated 2017) come the findings set out here.

Assay type in all cases: cell-based
Experiment [1] deals with T1, α4β7 (Homo sapiens, UniProt P13612+P26010). The experiment in a line: PBMC Memory T Cell Adhesion Assay, adhesion to MAdCAM-1. The procedure, abridged:
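Fresh human CD4+/CD45RO+ memory T cells in binding medium with 1 mM MnCl2 were preincubated with compound for 1.5 h at 37° C. on plates coated with Fc-captured MAdCAM-1 (400 ng/well). Adherent cells were read by fluorescence (Ex 485/Em 530). IC50 came from four-parameter nonlinear regression of RFU versus log concentration.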

In experiment [2] the target is α4β1 (Homo sapiens, UniProt P05556+P13612). As to the kind of experiment: α4β1-VCAM Cell Adhesion Assay (Jurkat E6.1 human cells). Details: host or cells: Jurkat E6.1 human T cells. The procedure, abridged: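 Jurkat E6.1 cells in DMEM with 0.1% BSA, 10 mM HEPES pH 7 and 1 mM MnCl2 were added (200,000/well) with serially diluted peptides to rh VCAM-1-Fc-coated wells (400 ng/well) for 30-45 min at 37 °C. Adherent cells after washing were quantified by MTT, absorbance 570 nm, with no-cell background subtracted for dose response.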
α4β1, sequence (P13612 34-1032): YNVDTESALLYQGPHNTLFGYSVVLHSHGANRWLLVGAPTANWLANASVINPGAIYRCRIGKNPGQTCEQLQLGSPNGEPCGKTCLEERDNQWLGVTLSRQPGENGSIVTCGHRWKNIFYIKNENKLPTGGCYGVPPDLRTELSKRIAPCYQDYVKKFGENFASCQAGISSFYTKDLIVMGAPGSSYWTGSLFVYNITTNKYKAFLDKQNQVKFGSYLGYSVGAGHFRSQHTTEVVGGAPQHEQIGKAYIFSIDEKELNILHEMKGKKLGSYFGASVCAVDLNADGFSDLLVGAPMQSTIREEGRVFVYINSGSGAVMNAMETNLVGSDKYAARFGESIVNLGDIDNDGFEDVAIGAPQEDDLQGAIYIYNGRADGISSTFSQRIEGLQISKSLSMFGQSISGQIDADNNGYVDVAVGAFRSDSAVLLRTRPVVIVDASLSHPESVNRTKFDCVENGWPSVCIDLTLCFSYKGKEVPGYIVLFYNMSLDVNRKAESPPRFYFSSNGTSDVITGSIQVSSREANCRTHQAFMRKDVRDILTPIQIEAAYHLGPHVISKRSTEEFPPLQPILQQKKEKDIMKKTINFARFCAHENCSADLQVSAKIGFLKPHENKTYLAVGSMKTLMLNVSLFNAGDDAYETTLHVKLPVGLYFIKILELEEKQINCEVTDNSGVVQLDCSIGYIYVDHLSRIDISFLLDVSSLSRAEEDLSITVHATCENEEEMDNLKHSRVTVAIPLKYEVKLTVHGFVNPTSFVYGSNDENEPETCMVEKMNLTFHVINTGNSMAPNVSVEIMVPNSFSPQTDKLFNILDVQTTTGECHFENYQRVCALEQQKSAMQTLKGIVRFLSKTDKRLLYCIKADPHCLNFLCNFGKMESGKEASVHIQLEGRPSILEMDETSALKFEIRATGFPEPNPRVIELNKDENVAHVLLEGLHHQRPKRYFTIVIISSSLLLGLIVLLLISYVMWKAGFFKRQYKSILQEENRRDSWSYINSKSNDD
α4β1, sequence (P05556 21-798): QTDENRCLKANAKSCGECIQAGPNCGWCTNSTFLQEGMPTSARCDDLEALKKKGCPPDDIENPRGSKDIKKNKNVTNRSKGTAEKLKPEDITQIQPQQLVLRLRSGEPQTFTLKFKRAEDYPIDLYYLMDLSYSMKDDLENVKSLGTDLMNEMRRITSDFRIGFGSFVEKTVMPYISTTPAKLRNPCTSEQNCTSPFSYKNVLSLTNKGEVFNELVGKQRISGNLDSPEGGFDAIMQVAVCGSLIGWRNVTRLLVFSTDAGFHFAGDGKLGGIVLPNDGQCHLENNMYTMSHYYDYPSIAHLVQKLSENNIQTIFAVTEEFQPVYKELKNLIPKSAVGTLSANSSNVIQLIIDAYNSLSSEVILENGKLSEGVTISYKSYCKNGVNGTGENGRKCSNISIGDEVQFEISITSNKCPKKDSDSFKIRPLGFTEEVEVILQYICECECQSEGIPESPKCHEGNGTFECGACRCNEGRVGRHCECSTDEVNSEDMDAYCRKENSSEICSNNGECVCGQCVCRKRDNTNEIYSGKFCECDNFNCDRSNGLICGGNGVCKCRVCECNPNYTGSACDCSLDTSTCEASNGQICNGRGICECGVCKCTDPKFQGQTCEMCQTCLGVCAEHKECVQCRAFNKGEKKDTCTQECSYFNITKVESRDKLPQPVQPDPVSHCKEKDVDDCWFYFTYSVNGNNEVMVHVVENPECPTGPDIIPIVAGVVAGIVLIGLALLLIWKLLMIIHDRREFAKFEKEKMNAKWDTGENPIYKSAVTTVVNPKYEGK

Experiment [3] deals with T1, α4β7. The experiment in a line: α4β7-MAdCAM Cell Adhesion Assay (RPMI 8866 human cells). Further details: host or cells: RPMI 8866 human B lymphoblastoid cells. In a few lines: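 Washed RPMI 8866 cells (200,000/well) in DMEM with 0.1% BSA, 10 mM HEPES pH 7, 1 mM MnCl2 adhered to rh MAdCAM-1/Fc-coated wells with serially diluted peptides, 30-45 min at 37 °C. After three washes, bound cells quantified by MTT, A570, cell-free background subtracted for dose response.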

Read-outs that look alike come from different tables or passages of the source. Numbered stars: 1 amine (or outer) side, 2 acyl side, 3 side chain; on linkers, the order of the positions; unused ones are H or OH. Bridge positions count the residues as written; N and C are the ends. Square brackets hold non-standard residues; d marks the D form. Peptide text beside a SMILES is read from it. I, II: the chains in the order shown. Diglycolyl = O=C(COCC(=O)[*:2])[*:1]; NMeR = CN[C@@H](CCCNC(=N)N)C(=O)O; Pen = CC(C)(S)[C@H](N)C(=O)O

T1 sequence (P13612 34-1032): as the sequence (P13612 34-1032) above
T1 sequence (P26010 20-798): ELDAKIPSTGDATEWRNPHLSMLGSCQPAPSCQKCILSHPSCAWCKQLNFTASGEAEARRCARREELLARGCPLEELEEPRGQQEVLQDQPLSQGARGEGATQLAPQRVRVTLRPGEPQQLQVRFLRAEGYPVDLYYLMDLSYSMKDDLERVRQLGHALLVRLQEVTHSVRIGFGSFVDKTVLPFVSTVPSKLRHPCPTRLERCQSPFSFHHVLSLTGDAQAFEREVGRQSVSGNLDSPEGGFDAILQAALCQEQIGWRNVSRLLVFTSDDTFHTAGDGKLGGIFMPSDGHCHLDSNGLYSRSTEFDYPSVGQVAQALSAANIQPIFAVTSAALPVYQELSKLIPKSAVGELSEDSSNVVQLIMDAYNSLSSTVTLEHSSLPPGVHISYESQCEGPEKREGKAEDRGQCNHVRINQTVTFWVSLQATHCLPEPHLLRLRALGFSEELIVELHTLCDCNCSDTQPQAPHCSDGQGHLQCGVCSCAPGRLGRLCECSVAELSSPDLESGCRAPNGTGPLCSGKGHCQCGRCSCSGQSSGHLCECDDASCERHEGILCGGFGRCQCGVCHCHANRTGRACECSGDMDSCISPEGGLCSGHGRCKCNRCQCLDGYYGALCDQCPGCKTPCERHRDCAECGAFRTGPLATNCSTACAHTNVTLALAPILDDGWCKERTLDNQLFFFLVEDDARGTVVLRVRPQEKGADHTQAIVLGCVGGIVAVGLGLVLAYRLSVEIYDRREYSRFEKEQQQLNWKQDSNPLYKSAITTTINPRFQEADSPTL

The IC50 is the midpoint of a concentration-inhibition curve. As to `CC(=O)N[C@@H]1C(=O)N(C)[C@@H](CCCNC(=N)N)C(=O)N[C@@H](CO)C(=O)N[C@@H](CC(=O)O)C(=O)N[C@@H]([C@@H](C)O)C(=O)N[C@@H](CC(C)C)C(=O)N[C@H](C(=O)N[C@@H](Cc2c[nH]c3ccccc23)C(=O)N[C@H](CCC(=O)O)C(=O)N[C@H](CCCCNC(=O)COCC(=O)NCCCC[C@@H](NC(=O)[C@@H](CCC(=O)O)NC(=O)[C@H](Cc2c[nH]c3ccccc23)NC(=O)[C@H]2NC(=O)[C@H](CC(C)C)NC(=O)[C@H]([C@@H](C)O)NC(=O)[C@H](CC(=O)O)NC(=O)[C@H](CO)NC(=O)[C@H](CCCNC(=N)N)N(C)C(=O)[C@@H](NC(C)=O)C(C)(C)SSC2(C)C)C(N)=O)C(N)=O)C(C)(C)SSC1(C)C` [compound 68] (I: Ac-[Pen][NMeR]SDTL[Pen]W[dE][dK]-NH2 / II: Ac-[Pen][NMeR]SDTL[Pen]W[dE][dK]-NH2; disulfide I:1-I:7, II:1-II:7; linker I:10-II:10 via Diglycolyl), the IC50 in experiment [1] (Table 3-B, range classes, read-out: PBMC IC50) was 100 to 500 nM; in experiment [2] (Table 3-B, Selectivity (α4β1), range classes, read-out: α4β1 cell IC50) it was above 100000 nM; in experiment [3] (Table 3-B, Potency (α4β7), range classes, read-out: α4β7 cell (Hu) IC50) it was 25 to 50 nM.

As for `CC(=O)N[C@H]1CSSC(C)(C)[C@@H](C(=O)N[C@@H](Cc2c[nH]c3ccccc23)C(=O)N[C@H](CCCCNC(=O)COCC(=O)NCCCC[C@@H](NC(=O)[C@H](Cc2c[nH]c3ccccc23)NC(=O)[C@H]2NC(=O)[C@H](CC(C)C)NC(=O)[C@H]([C@@H](C)O)NC(=O)[C@H](CC(=O)O)NC(=O)[C@H](CO)NC(=O)[C@H](CCCNC(=N)N)N(C)C(=O)[C@@H](NC(C)=O)CSSC2(C)C)C(N)=O)C(N)=O)NC(=O)[C@H](CC(C)C)NC(=O)[C@H]([C@@H](C)O)NC(=O)[C@H](CC(=O)O)NC(=O)[C@H](CO)NC(=O)[C@H](CCCNC(=N)N)N(C)C1=O` [compound 204, (Ac-C-N-Me-R-S-D-T-L-Pen-W-k-NH2)2-DIG] (I: Ac-C[NMeR]SDTL[Pen]W[dK]-NH2 / II: Ac-C[NMeR]SDTL[Pen]W[dK]-NH2; disulfide I:1-I:7, II:1-II:7 (inferred); linker I:9-II:9 via Diglycolyl (inferred)), the concentration for half-maximal inhibition (IC50) in experiment [1] (Table 4-B, read-out: Cell Adhesion PBMC IC50) was 1280 nM; in experiment [2] (Table 4-B, read-out: Cell Adhesion α4β1 IC50), above 100000 nM; in experiment [3] (Table 4-B, read-out: Cell Adhesion α4β7 IC50), 22 nM.
